According to patent US20080108612A1, “Use of Purine Derivatives as HSP90 Protein Inhibitors” (AVENTIS PHARMA S.A., priority 2005, published 2008):
Counter-ions that a name gives are not always drawn. Like-named read-outs stand apart in the source and are kept apart here.

Columns and labels:
Hsp82 = Hsp82 (Saccharomyces cerevisiae, UniProt P02829); test: Inhibition of the ATPase activity of Hsp82 in the enzymatic coupling system (pyruvate kinase / lactate dehydrogenase); format: biochemical
Text: The formation of ADP due to the ATPase activity of Hsp82 was used to develop another method for evaluating the enzymatic activity of this enzyme by application of an enzymatic coupling system involving pyruvate kinase (PK) and lactate dehydrogenase (LDH). In this kinetic-type spectrophotometric method, the PK catalyzes the formation of ATP and of pyruvate from phosphoenol pyruvate (PEP) and from the ADP produced by Hsp82. The pyruvate formed, which is a substrate for LDH, is then converted to lactate in the presence of NADH. In this case, the decrease in NADH concentration, measured by the decrease in absorbance at the wavelength of 340 nm, is proportional to the concentration of ADP produced by Hsp82.
The products tested were incubated in a reaction volume of 100 μl of buffer composed of 100 mM Hepes-NaOH (pH 7.5), 5 mM MgCl2, 1 mM DTT, 150 mM KCl, 0.3 mM NADH, 2.5 mM PEP and 250 μM ATP. This mixture was preincubated at 37° C. for 30 min before adding 3.77 units of LDH and 3.77 units of PK. The reaction was initiated by addition of the product to be evaluated, in variable concentrations, and of Hsp82, at the concentration of 1 μM. Measurement of the enzymatic activity of Hsp82 was then carried out, continuously, in a microplate reader at 37° C., at the wavelength of 340 nm. The initial rate of the reaction was obtained by measuring the slope of the tangent at the origin of the curve recorded. The enzymatic activity was expressed in μM of ADP formed per minute. The effect of the various products tested was expressed as a percentage inhibition of the ATPase activity.
The inhibitory activities on the ATPase activity of Hsp82 obtained with the products of the invention in the enzymatic coupling system are given in the table below, according to the criteria below for inhibition of the ATPase activity of Hsp82: […]

[1] = ATPase activity of Hsp82, PK/LDH enzymatic coupling system, 1 μM Hsp82, 250 μM ATP, 37° C., absorbance at 340 nm, read-out: IC50

Sequence of Hsp82 (P02829 whole entry): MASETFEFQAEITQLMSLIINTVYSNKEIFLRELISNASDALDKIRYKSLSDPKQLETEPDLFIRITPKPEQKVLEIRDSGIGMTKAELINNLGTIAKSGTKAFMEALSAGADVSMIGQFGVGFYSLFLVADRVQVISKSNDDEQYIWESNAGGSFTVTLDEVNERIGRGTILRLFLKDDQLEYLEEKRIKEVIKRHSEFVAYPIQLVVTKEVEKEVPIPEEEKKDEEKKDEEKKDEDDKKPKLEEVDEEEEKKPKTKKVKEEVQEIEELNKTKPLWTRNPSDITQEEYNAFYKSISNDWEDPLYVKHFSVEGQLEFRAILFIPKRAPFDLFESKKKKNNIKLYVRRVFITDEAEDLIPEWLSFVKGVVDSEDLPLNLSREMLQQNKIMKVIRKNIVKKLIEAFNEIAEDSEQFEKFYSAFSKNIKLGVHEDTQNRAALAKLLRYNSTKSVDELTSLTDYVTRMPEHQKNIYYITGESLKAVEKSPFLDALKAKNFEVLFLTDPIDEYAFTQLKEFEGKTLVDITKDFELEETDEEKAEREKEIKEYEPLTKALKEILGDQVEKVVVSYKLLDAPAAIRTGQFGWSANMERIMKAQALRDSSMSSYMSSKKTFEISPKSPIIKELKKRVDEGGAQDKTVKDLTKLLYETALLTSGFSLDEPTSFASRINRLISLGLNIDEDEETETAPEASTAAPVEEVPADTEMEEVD

Row | Compound | IC50 (Hsp82; [1]) [µM] | melting point [°C] | IC50 (Hsp82) [µM]
1 | Clc1nc(NCCNCc2ccccc2)c2nc[nH]c2n1 [Example 6] | 10 to 100 |  | 
2 | c1csc(CNc2[nH]cnc3ncnc2-3)c1 [Example 5, 6-(thiophen-2-yl)methylamino-1H-purine] | 10 to 100 |  | 
3 | Clc1nc(OCc2ccccc2)c2nc[nH]c2n1 [Example 2, 2-chloro-6-phenylmethyloxy-1H-purine] | 10 to 100 |  | 
4 | Clc1nc(NCCN2CCOCC2)c2nc[nH]c2n1 [Example 4, 2-chloro-6-[2-(morpholin-4-yl)ethylamino]-1H-purine] | 10 to 100 |  | 
5 | CC(Nc1nc(Cl)nc2[nH]cnc12)c1ccccc1 (racemic) [Example 3, 2-chloro-6-(1(R,S)-phenylethyl)amino-1H-purine] |  |  | 10 to 100

The next lines start with results.

Row | IC50 (Hsp82; [1]) [µM] | melting point [°C] | Compound | IC50 (Hsp82) [µM]
6 | 1 to 10 | 258 to 260 | Cl.c1ccc(CN2CCN(c3ncnc4[nH]cnc34)CC2)cc1 [Example 1] | 
7 | 10 to 100 |  | CCOC(=O)CC1CCN(c2ncnc3[nH]cnc23)CC1 [Example 8, 6-[4-(ethyloxycarbonyl)methylpiperidin-1-yl]-1H-purine] | 
8 | 1 to 10 |  | c1ccc(N2CCN(c3ncnc4[nH]cnc34)CC2)nc1 [Example 10, 6-[4-(pyridin-2-yl)piperazinyl]-1-H-purine monohydrochloride] | 
9 | 1 to 10 |  | c1nc(N2CCCCC2)c2nc[nH]c2n1 [Example 9, 6-(piperidin-1-yl)-1H-purine] | 
